Laboratory results as given in patent publication US20240217951A1, “PCSK9 INHIBITORS AND METHODS OF USE THEREOF” (AstraZeneca AB, priority 2022, published 2024).
pEC50, pIC50, pKd: −log10 of the molar value.

What was measured:
[1] = target: T1, potassium ion channel hERG (human Ether-á-go-go-Related Gene) (Homo sapiens, UniProt Q12809); assay: Assay 5 - hERG assay (SyncroPatch 384PE patch clamp, CHO cells); assay type: cell-based; settings: geometric mean; CHO cells over-expressing hERG; read-out: Assay 5 (hERG Hu CHO IF EPh CR-Syncro) GMean IC50
T1 construct: expressed in transfected cells; host or cells: Chinese hamster ovary K1 (CHO)
Summary of the method: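 Automated high-throughput patch clamp on CHO-K1 cells overexpressing hERG at room temperature, KF/KCl internal with escin, NMDG-containing external at pH 7.4. Six-point cumulative compound addition, 0.33% DMSO final; wells kept only with seal >30 MΩ, Z′ >0.4 and current >0.2 nA.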

human PCSK9 = target: T2, human PCSK9 (Homo sapiens, UniProt Q8NBP7); assay: Assay 2 - Biophysical human PCSK9 assay (SPR, Biacore); assay type: binding; settings: geometric mean; SPR at 30° C; read-out: Assay 2 (PCSK9 BIAcore DBA CR) GMean Kd
T2 construct: biotinylated human PCSK9 (31-692)-Avi-His6; His6 (C)
Procedure: Assay 2—Biophysical Human PCSK9 Assay
The SPR binding experiments were performed on a Biacore S200 optical biosensor unit at 30° C. A Series S Sensor Chip SA that is designed to bind biotinylated molecules for interaction analysis in Biacore systems was equilibrated at room temperature prior to use. The running buffer for protein tethering and subsequent ligand binding experiments was 10 mM HEPES pH 7.4, 150 mM NaCl, 0.05% (v/v) Tween 20 pH 7.4.
For the surface tethering of PCSK9, biotinylated human PCSK9 (31-692)-Avi-His6 at a concentration of 0.5 mg/mL was used. Prior to the surface tethering, the surface was exposed to a solution of 50 mM NaOH, 500 mM NaCl via 3 consecutive injections of this solution with a contact time of 60 s and a flowrate of 10 μL min^−1 to remove non-conjugated streptavidin. The PCSK9 protein was diluted to a concentration of 20 μg/mL using running buffer and injected with a contact time of 180-300 s and a flowrate of 10 μL min^−1 over a single flow channel (typically flow channel 2 or flow channel 4) with the aim to achieve protein capture levels of >5000 response units (RU). Remaining biotin binding sites were blocked via 2 consecutive injections of a 10 μM D-biotin solution in running buffer with a contact time of 60 s and a flowrate of 10 μL min^−1 over all flow-channels. Flow-channels 1 and 3 typically served as a reference surface throughout the subsequent binding experiments.
The binding experiments were all performed at a flow rate of 30 PL min^−1 and by employing the method of single-cycle kinetics. This approach involves the sequential injection of a compound concentration series without regeneration steps. A contact time between 90-150 s was selected, which was followed by a 40 min dissociation phase to allow for a proper estimation of the dissociation rate constant. Test compounds were delivered in DMSO at a concentration of 10 mM and a digital dispenser HP D300 was used to set up the compound concentration series using 6 concentrations. The tested concentrations have been 30, 100, 300, 1000, 3000 and 10000 nM. Prior to injecting any compound, the surfaces were equilibrated by injecting running buffer over them in three separate pulses. The data collection rate was set to 10 Hz.
The raw sensorgrams of the compound injections were first subjected to reference subtraction (subtracting the signal from flow channel 1 and/or 3 from the signal from channels 2 and/or 4 respectively) and then blank subtraction (subtracting the signal from injecting DMSO controls from the reference subtracted data). The resulting double-referenced sensorgrams were then fitted using a 1:1 binding interaction model using the manufactures software package to extract kinetic- and affinity data. Active compounds have been defined by creating a detectable binding signal at the highest compound concentration ([…]) of 3 RUs. Kinetic- and affinity data on active compounds are only provided for those compounds where the binding signal at the highest compound concentration ([…]) is 50% of the theoretical maximum binding signal for a 1:1 binding interaction (Rmax, typically between 15-20 RUs) in order to enable a proper fitting of the data.

PCSK9 [2] = target: T3, PCSK9 (Homo sapiens, UniProt Q8NBP7, G670E/V474I); assay: biochemical
[3] = target: GSK3β (Glycogen synthase kinase-3 beta) (Homo sapiens, UniProt P49841); assay: Assay 6 - GSK3β assay (ThermoFisher Z-Lyte); assay type: biochemical; settings: geometric mean; ATP Conc: 10 μM; read-out: Assay 6 (GSK3β FRET-Z-Lyte CR) GMean IC50 (μM) ATP Conc: 10
Summary of the method: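 Z-Lyte fluorescence kinase assay with 0.22-0.92 ng GSK3β and 2 μM Ser/Thr 09 peptide in 50 mM HEPES pH 7.5, 10 mM MgCl2, 1 mM EGTA, 0.01% BRIJ-35. Kinase reaction 60 min at room temperature, then 60 min development. 10-point 3-fold titration from 10 μM in 1% DMSO, fitted to a sigmoidal dose-response curve.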

PCSK9 [4] = target: T3, PCSK9; assay: Assay 3 - PCSK9 LDL-C uptake assay in HepG2 cells; assay type: cell-based; set-up: TEV cleavage site (C); His6 (C); host or cells: added to HepG2 cells (ATCC #HB-8065); settings: 125 nM PCSK9, pHrodo Red-LDL, read-out: Assay 3 LDL uptake potency
Source text: Assay 3—PCSK9 LDL-C Uptake Assay
This assay measures for PCSK9 antagonist activity based on a test compound's capacity to restore LDL-C-uptake in HepG2 cells. The assay is based on exogenous PCSK9 and LDL-C complexed with a pH-sensitive dye. Outside the cells, at neutral pH, the pHrodo Red-LDL is dimly fluorescent but upon LDLR mediated endocytosis it fluoresces brightly. PCSK9 traffics the LDLR to intracellular degradation and reduces uptake of LDL-C. Inhibition of PCSK9 reduces LDLR degradation and the increased LDL-C uptake is quantified by fluorescence microscopy.
Preparation of Assay Reagents
Cell medium: MEM supplemented with 10% FBS, 1×NEAA and Sodium Pyruvate Assay medium: OptiMem supplemented with penicillin/streptomycin
Cells: HepG2 (ATCC #HB-8065)
Step by Step Protocol for Running the Assay:
• 1. Cryopreserved HepG2 cells were thawed in assay medium and centrifuged for 5 min at 250 g. Supernatant was discarded and the cell pellet resuspended in cell medium and counted with a Nucleocounter. Cells were again centrifuged 5 min at 250 g and the pellet was resuspended to 500000 cells/mL in assay medium. • 2. 20 μL of above cell mix was dispensed into black pclear TC treated 384 well plates with Multidrop Combi and left at room temperature for 20 minutes. • 3. Plates were incubated at 37° C., 5% CO2 for 24 h
• 1. Test compounds were prepared in concentration response in DMSO with a half-log dilution factor in DMSO in Echo 384 LDV plates starting at 10 mM. • 2. 30 nL of above test compounds were dispensed with Echo 655 to cells for a top concentration of 10 μM • 3. 10 μL PCSK9 in assay medium was dispensed to cells with Multidrop Combi for 125 nM final concentration in the wells. • 4. Plates were incubated at 37° C., 5% CO2 for 24 h
• 1. 10 μL pHrodo Red-LDL in assay medium was dispensed to cells with Multidrop Combi for 6 μg/mL • 2. Plates were incubated at 37° C., 5% CO2 and imaged with the Incucyte S3 after 4 h and 24 h
Image data was processed using Incucyte 2021, a software to identify cells and red fluorescent intensity. Screener was used to further process data. Data was normalized as % effect of the signal between median values of the on-plate controls of DMSO and 100 nM Evolocumab according to the formula % effect=−100*(x−DMSO)/(Evolocumab−DMSO) where x equals the measured signal. Concentration response data of the normalized values were fitted using a four-parameter logistic fit.

T3 sequence (Q8NBP7 with tags, fused parts or gaps V474I/G670E): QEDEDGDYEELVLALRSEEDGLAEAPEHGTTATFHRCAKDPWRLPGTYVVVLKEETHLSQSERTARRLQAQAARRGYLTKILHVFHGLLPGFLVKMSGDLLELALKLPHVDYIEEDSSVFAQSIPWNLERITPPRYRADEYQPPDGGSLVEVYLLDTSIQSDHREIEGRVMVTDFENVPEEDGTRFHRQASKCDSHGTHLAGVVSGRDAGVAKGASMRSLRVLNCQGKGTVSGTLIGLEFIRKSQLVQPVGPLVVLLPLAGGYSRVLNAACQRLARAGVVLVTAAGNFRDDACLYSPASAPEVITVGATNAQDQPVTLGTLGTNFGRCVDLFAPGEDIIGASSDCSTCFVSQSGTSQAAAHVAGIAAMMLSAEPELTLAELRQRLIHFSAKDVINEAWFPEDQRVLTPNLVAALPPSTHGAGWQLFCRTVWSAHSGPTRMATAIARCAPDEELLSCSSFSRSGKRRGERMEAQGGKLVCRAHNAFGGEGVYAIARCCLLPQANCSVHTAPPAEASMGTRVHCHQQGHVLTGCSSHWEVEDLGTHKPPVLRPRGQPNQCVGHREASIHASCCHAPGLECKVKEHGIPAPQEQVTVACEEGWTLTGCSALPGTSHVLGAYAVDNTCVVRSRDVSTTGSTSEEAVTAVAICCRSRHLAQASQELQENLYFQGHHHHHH
T2 sequence (Q8NBP7 31-692): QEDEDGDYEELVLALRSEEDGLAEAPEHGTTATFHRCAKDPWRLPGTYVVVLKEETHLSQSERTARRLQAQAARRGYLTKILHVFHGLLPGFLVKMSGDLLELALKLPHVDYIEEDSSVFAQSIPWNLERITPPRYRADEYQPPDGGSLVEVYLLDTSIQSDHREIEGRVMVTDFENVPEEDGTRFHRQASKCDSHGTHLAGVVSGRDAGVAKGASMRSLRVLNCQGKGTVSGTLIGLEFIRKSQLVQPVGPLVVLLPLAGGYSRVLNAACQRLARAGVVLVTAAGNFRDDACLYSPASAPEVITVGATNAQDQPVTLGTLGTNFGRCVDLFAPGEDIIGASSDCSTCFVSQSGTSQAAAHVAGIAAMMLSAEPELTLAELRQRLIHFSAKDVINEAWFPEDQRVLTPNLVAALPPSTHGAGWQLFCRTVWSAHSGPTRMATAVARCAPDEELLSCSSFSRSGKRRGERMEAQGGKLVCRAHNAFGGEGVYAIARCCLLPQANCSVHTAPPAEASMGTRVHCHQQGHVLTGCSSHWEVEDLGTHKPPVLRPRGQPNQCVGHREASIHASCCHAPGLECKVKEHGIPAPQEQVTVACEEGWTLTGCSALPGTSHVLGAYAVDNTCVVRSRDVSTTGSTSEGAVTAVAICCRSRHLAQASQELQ
Chain of GSK3β (Glycogen synthase kinase-3 beta) (P49841 whole entry): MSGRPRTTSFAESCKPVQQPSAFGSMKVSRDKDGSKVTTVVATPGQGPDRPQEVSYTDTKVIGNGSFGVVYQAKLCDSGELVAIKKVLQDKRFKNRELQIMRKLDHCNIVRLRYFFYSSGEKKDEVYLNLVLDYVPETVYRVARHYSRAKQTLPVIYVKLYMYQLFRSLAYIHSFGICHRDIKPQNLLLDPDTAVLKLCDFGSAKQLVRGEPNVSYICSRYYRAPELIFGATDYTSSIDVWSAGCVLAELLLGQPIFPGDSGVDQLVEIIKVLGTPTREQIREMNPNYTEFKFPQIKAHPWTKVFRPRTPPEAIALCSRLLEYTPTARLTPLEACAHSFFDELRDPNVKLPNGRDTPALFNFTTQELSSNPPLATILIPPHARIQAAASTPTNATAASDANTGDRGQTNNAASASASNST
T1 sequence (Q12809 whole entry): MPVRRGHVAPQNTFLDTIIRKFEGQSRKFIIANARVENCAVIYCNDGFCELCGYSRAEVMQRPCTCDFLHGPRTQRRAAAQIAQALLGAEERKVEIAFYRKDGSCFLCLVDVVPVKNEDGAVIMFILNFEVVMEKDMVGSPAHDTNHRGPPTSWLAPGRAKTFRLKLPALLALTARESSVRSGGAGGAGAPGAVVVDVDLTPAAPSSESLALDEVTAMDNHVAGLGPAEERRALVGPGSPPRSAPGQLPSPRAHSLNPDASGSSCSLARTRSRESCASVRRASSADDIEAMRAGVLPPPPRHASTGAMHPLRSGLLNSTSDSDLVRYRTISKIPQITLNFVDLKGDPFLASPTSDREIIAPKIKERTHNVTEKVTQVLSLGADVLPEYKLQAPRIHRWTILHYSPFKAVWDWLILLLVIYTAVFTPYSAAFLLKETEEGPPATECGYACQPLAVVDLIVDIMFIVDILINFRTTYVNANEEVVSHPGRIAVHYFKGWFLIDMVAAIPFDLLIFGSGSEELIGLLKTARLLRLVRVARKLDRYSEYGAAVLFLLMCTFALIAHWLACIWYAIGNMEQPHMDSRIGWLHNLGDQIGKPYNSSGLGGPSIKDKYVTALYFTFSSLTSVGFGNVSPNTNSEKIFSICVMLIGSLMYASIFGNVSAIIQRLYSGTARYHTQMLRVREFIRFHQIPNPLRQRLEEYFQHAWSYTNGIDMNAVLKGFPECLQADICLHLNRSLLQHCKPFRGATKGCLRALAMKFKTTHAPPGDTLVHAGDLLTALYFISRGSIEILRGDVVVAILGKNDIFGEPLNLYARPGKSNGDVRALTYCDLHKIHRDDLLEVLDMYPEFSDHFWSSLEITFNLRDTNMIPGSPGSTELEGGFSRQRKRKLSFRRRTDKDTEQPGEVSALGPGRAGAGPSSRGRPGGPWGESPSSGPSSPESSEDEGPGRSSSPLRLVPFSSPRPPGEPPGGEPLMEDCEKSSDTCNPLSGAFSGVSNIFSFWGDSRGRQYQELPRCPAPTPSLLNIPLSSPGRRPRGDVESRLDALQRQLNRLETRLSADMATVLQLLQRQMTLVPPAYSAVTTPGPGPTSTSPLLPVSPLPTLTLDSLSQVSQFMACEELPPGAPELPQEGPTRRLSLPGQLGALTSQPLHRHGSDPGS

Cc1nc(N[C@H]2CC[C@H](Nc3ccc(-n4ccccc4=O)cn3)C2)cnc1C#N [Example 1, 3-Methyl-5-(((1S,3S)-3-((2-oxo-2H-[1,3′-bipyridin]-6′-yl)amino)cyclopentyl)amino)pyrazine-2-carbonitrile]
pIC50 [1]: < 4.40
pKd (human PCSK9): 5.77
pIC50 (PCSK9 [2]): 5.56

Cc1ncc(N[C@H]2CC[C@H](Nc3ccc(-n4ccccc4=O)cn3)C2)nc1C [Example 2, 6′-(((1S,3S)-3-((5,6-Dimethylpyrazin-2-yl)amino)cyclopentyl)amino)-2H-[1,3′-bipyridin]-2-one]
pIC50 [1]: < 4.40
pKd (human PCSK9): 7.19
pIC50 (PCSK9 [2]): 6.95
IC50 [3]: > 10 µM

O=c1ccccn1-c1ccc(N[C@H]2CC[C@H](Nc3cnc(Cl)cn3)C2)nc1 [Example 3, 6′-(((1S,3S)-3-((5-Chloropyrazin-2-yl)amino)cyclopentyl)amino)-2H-[1,3′-bipyridin]-2-one]
pIC50 [1]: 4.61
pKd (human PCSK9): 7.41
pIC50 (PCSK9 [2]): 7.40
IC50 [3]: > 10 µM

Cc1cnc(N[C@H]2CC[C@H](Nc3ccc(-n4ccccc4=O)cn3)C2)cn1 [Example 4, 6′-(((1S,3S)-3-((5-Methylpyrazin-2-yl)amino)cyclopentyl)amino)-2H-[1,3′-bipyridin]-2-one]
pIC50 [1]: < 4.40
pKd (human PCSK9): 7.09
pIC50 (PCSK9 [2]): 6.98
IC50 [3]: > 10 µM

CC(=O)c1cnc(N[C@H]2CC[C@H](Nc3ccc(-n4ccccc4=O)cn3)C2)cn1 [Example 6, 6′-(((1S,3S)-3-((5-Acetylpyrazin-2-yl)amino)cyclopentyl)amino)-2H-[1,3′-bipyridin]-2-one]
pIC50 [1]: < 4.40
pKd (human PCSK9): 6.06
pIC50 (PCSK9 [2]): 5.93

COc1cnc(N[C@H]2CC[C@H](Nc3ccc(-n4ccccc4=O)cn3)C2)cn1 [Example 140, 6′-(((1S,3S)-3-((5-Methoxypyrazin-2-yl)amino)cyclopentyl)amino)-2H-[1,3′-bipyridin]-2-one]
pIC50 [1]: < 4.40
pKd (human PCSK9): 7.09
pIC50 (PCSK9 [2]): 6.51

Cc1cnc(N[C@H]2CC[C@H](Nc3ccc(-n4cc(-c5cn[nH]c5)ccc4=O)cn3)C2)cn1 [Example 207, 6′-(((1S,3S)-3-((5-Methylpyrazin-2-yl)amino)cyclopentyl)amino)-5-(1H-pyrazol-4-yl)-2H-[1,3′-bipyridin]-2-one]
pIC50 [1]: < 4.40
pIC50 (PCSK9 [2]): 8.07
pEC50 (PCSK9 [4]): 6.40
IC50 [3]: > 10 µM

Cc1cnc(N[C@H]2CC[C@H](Nc3ccc(-n4cc(-c5c[nH]nn5)ccc4=O)cn3)C2)cn1 [Example 209, 6′-(((1S,3S)-3-((5-Methylpyrazin-2-yl)amino)cyclopentyl)amino)-5-(1H-1,2,3-triazol-4-yl)-2H-[1,3′-bipyridin]-2-one]
pIC50 [1]: < 4.40
pIC50 (PCSK9 [2]): 8.20
pEC50 (PCSK9 [4]): 6.70
IC50 [3]: > 10 µM

Cc1cnc(N[C@H]2CC[C@H](Nc3ccc(-n4c(=O)n(C)c5ccc(C#N)cc54)cn3)C2)cn1 [Example 215, 1-Methyl-3-(6-(((1S,3S)-3-((5-methylpyrazin-2-yl)amino)cyclopentyl)amino)pyridin-3-yl)-2-oxo-2,3-dihydro-1H-benzo[d]imidazole-5-carbonitrile]
pIC50 [1]: 4.80
pIC50 (PCSK9 [2]): 9.00
pEC50 (PCSK9 [4]): 7.00
IC50 [3]: > 10 µM

Cc1cnc(N[C@H]2CC[C@H](Nc3ccc(-n4c(=O)n(C)c5cc(C#N)ccc54)cn3)C2)cn1 [Example 216, 3-Methyl-1-(6-(((1S,3S)-3-((5-methylpyrazin-2-yl)amino)cyclopentyl)amino)pyridin-3-yl)-2-oxo-2,3-dihydro-1H-benzo[d]imidazole-5-carbonitrile]
pIC50 [1]: 5.14
pIC50 (PCSK9 [2]): 8.55
pEC50 (PCSK9 [4]): 6.52
IC50 [3]: > 10 µM

Cc1cnc(N[C@H]2CC[C@H](Nc3ccc(-n4c(=O)n(C)c5cc(C#N)cnc54)cn3)C2)cn1 [Example 218, 1-Methyl-3-(6-(((1S,3S)-3-((5-methylpyrazin-2-yl)amino)cyclopentyl)amino)pyridin-3-yl)-2-oxo-2,3-dihydro-1H-imidazo[4,5-b]pyridine-6-carbonitrile]
pIC50 [1]: 4.65
pIC50 (PCSK9 [2]): 8.27
pEC50 (PCSK9 [4]): 6.52
IC50 [3]: > 10 µM

Cc1cnc(N[C@H]2CC[C@H](Nc3ccc(-n4nccc(Cl)c4=O)cn3)C2)cn1 [Example 232, 4-Chloro-2-(6-(((1S,3S)-3-((5-methylpyrazin-2-yl)amino)cyclopentyl)amino)pyridin-3-yl)pyridazin-3 (2H)-one]
pIC50 [1]: 4.40
pIC50 (PCSK9 [2]): 8.43
pEC50 (PCSK9 [4]): 6.30
IC50 [3]: > 10 µM

Cc1cnc(N[C@H]2CC[C@H](Nc3ccc(-n4cc(CS(C)(=O)=O)ccc4=O)cn3)C2)cn1 [Example 259, 6′-(((1S,3S)-3-((5-Methylpyrazin-2-yl)amino)cyclopentyl)amino)-5-((methylsulfonyl)methyl)-2H-[1,3′-bipyridin]-2-one]
pIC50 [1]: < 4.40
pIC50 (PCSK9 [2]): 7.37
pEC50 (PCSK9 [4]): < 6.22
IC50 [3]: > 10 µM
